Measurements published in patent US6992070B2 (priority 2000, dated 2006).

Test system: ex vivo perfused rabbit heart (ventricular myocytes), Adgal adenovirus gene transfer
Type: cell-based

Row | SMILES | infection efficiency | pretreatment (exposure) time required for the enhancement of infection [min] | percentage of infected cells | percentage of infected cells in the absence of VEGF
1 | O=[N+]([O-])OCC(CO[N+](=O)[O-])O[N+](=O)[O-] [nitroglycerin] | replicates the increase in infection efficiency | 2 |  | 
2 | Nc1nc2c(nc(Br)n2[C@@H]2O[C@@H]3COP(=O)(O)O[C@H]3[C@H]2O)c(=O)[nH]1 [8-Br-cGMP] | replicates the increase in infection efficiency | 2 |  | 
3 | CCCOc1ccccc1-c1nc2nn[nH]c2c(=O)[nH]1 [zaprinast] |  |  | increased the percentage of infected cells | No change
4 | CCCc1nn(C)c2c(=O)[nH]c(-c3cc(S(=O)(=O)N4CCN(C)CC4)ccc3OCC)nc12 [Sildenafil, 5-[2-ethoxy-5-(4-methylpiperazin-1-ylsulphonyl)phenyl]-1-methyl-3-n-propyl-1,6-dihydro-7H-pyrazolo[4,3d]pyrimidin-7-one] |  |  | increased the percentage of infected cells | No change
5 | NCCc1c[nH]c2ccc(O)cc12 [serotonin] |  | 15 |  | 
